In patent publication US9777015B2, “Useful thiophene derivatives in the treatment of diabetes” (METABRAIN RESEARCH, priority 2012, dated 2017) one finds activity data, which are given here for 24 molecules.

Each structure is given as a SMILES string. Like-named read-outs stand apart in the source and are kept apart here.

One test concerns INS-1 cells. The experiment in a line: Stimulation test of insulin secretion by INS-1 cells. The note with it: Rattus norvegicus, 1 h incubation, 3.5 mM glucose; for activity at 10 µM: INS1, compound at 10 μM, read-out: INS-1 % of ctrl @ 10 μM; for activity at 50 µM: INS1, compound at 50 μM, read-out: INS-1 % of ctrl @ 50 μM. In kind it is cell-based. The procedure:
The different compounds were tested on an INS-1 beta-pancreatic line in order to evaluate their capability of potentializing the insulin secretion in response to glucose. Very briefly, the cells are cultivated in a culture medium, RPMI 1640 with 10 mM glucose containing 1 mM of sodium pyruvate, 50 μM of 2-mercaptoethanol, 2 mM of glutamine, 10 mM of HEPES, 100 IU/mL of penicillin, 100 μg/mL of streptomycin and 10% of inactivated fetal calf serum, as described by Asfari et al.. For the insulin secretion test, the INS-1 cells are sown and cultivated in 96-well plates. After 3 days of cultivation at 37° C. in a humid atmosphere (95% air/5% CO2), the medium is removed and the cells are incubated for 16 h in a medium containing 5 mM of glucose and 1% of inactivated fetal calf serum. On the day of the test, the cells are washed with a Krebs buffer (pH 7.4) containing 0.1% of bovine albumin and then pre-incubated for 30 min at 37° C. in this same buffer containing 2.8 mM of glucose. Finally, the cells are again washed with Krebs buffer and then incubated for 1 h in the buffer of the secretion test (Krebs, pH 7.4 containing 0.1% of bovine albumin and 3.5 mM of glucose and molecules to be evaluated). At the end of the test, the cell supernatant is recovered in order to measure therein the secreted insulin, by means of an ELISA kit using a rat anti-insulin antibody (ELISA Alpco Cat no. 80-INSRTH-E10). Each condition is tested in triplicate. The 3.5 mM glucose, the 10^−7M GLP-1 and the Forskoline 10^−7/IBMX 10^−5M mixtures are used as positive controls of the test. A compound stimulates the secretion of insulin if this factor is greater than or equal to 130% of the control for a given glucose dose.

In test [1] the test system is hepatocytes isolated from Wistar rat liver. The experiment in a line: Test of inhibition of hepatic production of glucose (isolated hepatocytes, 3 h or 20 h incubation). The note with it: Rattus norvegicus, Hepatocyte, hepatic glucose production, rat hepatocytes; for activity at 50 µM: compound at 50 μM, read-out: HGP % of ctrl @ 50 μM; for activity at 100 µM: compound at 100 μM, read-out: HGP % of ctrl @ 100 μM. It counts as cell-based. The procedure: The hepatocytes are isolated from Wistar rat liver having fasted for 24 h after perfusion of collagenase in the portal vein. The freshly isolated hepatocytes are sown in 6-well plates coated with collagen and containing an adhesion medium (Williams Medium). After adhesion, the medium is replaced with RPMI 1640 medium without any glucose, containing hydrocortisone (7.10^−5M) for a duration from 16 to 18 h. The next day, the glucose hepatic production test is conducted in a Krebs medium for 3 h. The basal conditions are cells incubated with only Krebs, the stimulated conditions are the cells placed in Krebs+lactate+pyruvate, the produced conditions are the cells exposed to chemical compounds in a Krebs/lactate/pyruvate medium. In the case when the compounds are dissolved in DMSO, all the conditions of the tests are met in the presence of a final concentration of 0.1% DMSO. The positive control of the test is the mercaptopicolinate known for its inhibitory action on hepatic production of glucose via the phosphoenolpyruvate carboxykinase. For short term treatments, the compounds are incubated for 3 h. For long term treatments, the compounds are incubated for 20 h at the moment when the hepatocytes are cultivated in RPMI and then added during the hepatic production test for 3 h. At the end of the 3 hours of incubation, the supernatant is recovered for measurement of glucose with a colorimetric method using glucose oxidase. The cells are lysed with a 0.1% NaOH aqueous solution in order to measure the amount of protein with the Lowry method. The results are expressed in mmols of glucose per mg of protein.

On to `COC(=O)Cc1cc(C(=O)c2ccco2)sc1-c1ccccc1` [compound 3, methyl 2-(5-(furan-2-carbonyl)-2-phenylthiophen-3-yl)acetate], for which, in the test on INS-1 cells, the activity at 10 µM came to 152% and the activity at 50 µM is 318%. In addition, in test [1] (3 h, 3 h incubation), the activity at 50 µM amounted to 82% and the activity at 100 µM worked out at 74%.

Turning to `CCOC(=O)Cc1cc(C(=O)C2CCCCC2)sc1-c1ccc(Cl)cc1` [compound 14, ethyl 2-(2-(4-chlorophenyl)-5-(cyclohexanecarbonyl)thiophen-3-yl)acetate], in the test on INS-1 cells, the activity at 10 µM was 152% and the activity at 50 µM is 165%. In addition, in test [1] (3 h, 3 h incubation), the activity at 50 µM is 91% and the activity at 100 µM came out at 73%.

For the molecule `CCOC(=O)Cc1cc(C(=O)c2ccccc2)sc1-c1ccc(Cl)cc1` [compound 15, ethyl 2-(5-benzoyl-2-(4-chloro-phenyl)thiophen-3-yl)acetate], in the test with INS-1 cells, the activity at 10 µM stood at 150% and the activity at 50 µM is 160%. For the same molecule, in test [1] (20 h, 20 h incubation), the activity at 50 µM worked out at 63% and the activity at 100 µM was found to be 32%.

For `CCOC(=O)Cc1cc(C(=O)c2ccco2)sc1-c1ccc(OC)cc1` [compound 22, ethyl 2-(5-(furan-2-carbonyl)-2-(4-methoxyphenyl)thiophen-3-yl)acetate], in the test with INS-1 cells, the activity at 10 µM is 152% and the activity at 50 µM turned out to be 207%.

With `CCOC(=O)Cc1cc(C(=O)c2ccoc2)sc1-c1ccc(OC)cc1` [compound 28, ethyl 2-(5-(furan-3-carbonyl)-2-(4-methoxyphenyl)thiophen-3-yl)acetate], in the test with INS-1 cells, the activity at 10 µM stood at 136% and the activity at 50 µM turned out to be 138%.

With `CCOC(=O)Cc1cc(C(=O)c2cccc(OC)c2)sc1-c1ccc(OC)cc1` [compound 30, ethyl 2-(5-(3-methoxybenzoyl)-2-(4-methoxyphenyl)thiophen-3-yl)acetate], in the test with INS-1 cells, the activity at 10 µM was found to be 157%.

Consider `CCOC(=O)Cc1cc(C(=O)c2cscn2)sc1-c1ccc(OC)cc1` [compound 33, ethyl 2-(2-(4-methoxyphenyl)-5-(thiazole-4-carbonyl)thiophen-3-yl)acetate], for which, in the test on INS-1 cells, the activity at 10 µM stood at 199% and the activity at 50 µM stood at 280%.

For `CCOC(=O)Cc1cc(C(=O)c2ccccc2)sc1-c1ccc(OC)cc1` [compound 35, ethyl 2-(5-benzoyl-2-(4-methoxy-phenyl)thiophen-3-yl)acetate], in the test with INS-1 cells, the activity at 10 µM worked out at 128% and the activity at 50 µM worked out at 148%. Besides, in test [1] (20 h, 20 h incubation), the activity at 50 µM is 100% and the activity at 100 µM was 70%.

Turning to `CCOC(=O)Cc1cc(C(=O)CCCCl)sc1-c1ccc(OC)cc1` [compound 37, ethyl 2-(5-(4-chlorobutanoyl)-2-(4-methoxyphenyl)thiophen-3-yl)acetate], in the test with INS-1 cells, the activity at 10 µM came to 157% and the activity at 50 µM came out at 107%.

For the molecule `CC(C)OC(=O)Cc1cc(C(=O)c2ccco2)sc1-c1ccc(Cl)c(Cl)c1` [compound 39, isopropyl 2-(2-(3,4-dichlorophenyl)-5-(furan-2-carbonyl)thiophen-3-yl)acetate], in the test with INS-1 cells, the activity at 10 µM is 143% and the activity at 50 µM is 389%.

As to `CC(C)OC(=O)Cc1cc(C(=O)c2ccco2)sc1-c1ccc(Cl)cc1` [compound 44, isopropyl 2-(2-(4-chlorophenyl)-5-(furan-2-carbonyl)thiophen-3-yl)acetate], the activity at 10 µM with INS-1 cells is 180%. Also, the activity at 50 µM with INS-1 cells is 223%; in test [1] (3 h, 3 h incubation) it was 83%; in test [1] (20 h, 20 h incubation), 71%. Besides, the activity at 100 µM in test [1] (3 h, 3 h incubation) was found to be 69%; in test [1] (20 h, 20 h incubation), 61%.

With `COc1ccc(-c2sc(C(=O)c3cccc(OC)c3)cc2CC(=O)OCC2O[C@H]3OC(C)(C)O[C@H]3[C@H]3OC(C)(C)O[C@@H]23)cc1` (stereo partly drawn) [compound 85, ((3aS,5aS,8aS,8bS)-2,2,7,7-tetramethyltetrahydro-3aH-bis([1,3]dioxolo)[4,5-b:4′,5′-d]pyran-5-yl)methyl 2-(5-(3-methoxy-benzoyl)-2-(4-methoxy-phenyl)thiophen-3-yl)acetate], the activity at 10 µM in the test with INS-1 cells was found to be 146%.

With `COc1ccc(C(=O)c2cc(CC(=O)NCCN(C)C)c(-c3ccc(Cl)cc3)s2)cc1` [compound 89, 2-(2-(4-chlorophenyl)-5-(4-methoxybenzoyl)thiophen-3-yl)-N-(2-(dimethylamino)ethyl)acetamide], in the test on INS-1 cells, the activity at 10 µM was determined as 171%.

Turning to `O=C(c1ccco1)c1cc(CC(=O)N2CCOCC2)c(-c2ccc(Cl)cc2)s1` [compound 91, 2-(2-(4-chlorophenyl)-5-(furan-2-carbonyl)thiophen-3-yl)-1-morpholino ethanone], in the test with INS-1 cells, the activity at 10 µM is 184% and the activity at 50 µM amounted to 152%.

`COc1ccc(C(=O)c2cc(CC(=O)N3CCN(C)CC3)c(-c3ccc(Cl)cc3)s2)cc1` [compound 93, 2-(2-(4-chlorophenyl)-5-(4-methoxybenzoyl)thiophen-3-yl)-1-(4-methylpiperazin-1-yl)ethanone]: in the test on INS-1 cells, the activity at 10 µM is 149%.

In the case of `CN(C)CCNC(=O)Cc1cc(C(=O)c2ccco2)sc1-c1ccc(Cl)cc1` [compound 95, 2-(2-(4-chlorophenyl)-5-(furan-2-carbonyl)thiophen-3-yl)-N-(2-(dimethylamino)ethyl)acetamide], in the test on INS-1 cells, the activity at 10 µM was 144% and the activity at 50 µM stood at 147%.

Consider `COc1ccc(C(=O)c2cc(CC(=O)NCCO)c(-c3ccc(Cl)cc3)s2)cc1` [compound 96, 2-(2-(4-chlorophenyl)-5-(4-methoxybenzoyl)thiophen-3-yl)-N-(2-hydroxyethyl)acetamide], for which the activity at 10 µM in the test with INS-1 cells was 177%.

Regarding `CCOC(=O)Cc1cc(C(=O)N2CCOCC2)sc1-c1ccc(Cl)cc1` [compound 114, ethyl 2-(2-(4-chlorophenyl)-5-(morpholine-4-carbonyl)thiophen-3-yl)acetate], in the test with INS-1 cells, the activity at 10 µM was found to be 150%.

Consider `COCC(C(=O)OC(C)C)c1cc(C(=O)c2ccc(OC)cc2)sc1-c1ccc(Cl)cc1` (stereo not drawn) [compound 125], for which, in the test with INS-1 cells, the activity at 10 µM was determined as 154% and the activity at 50 µM was 126%.

Turning to `CCOC(=O)Cc1cc(C(=O)c2ccco2)sc1-c1ccc(C#N)cc1` [compound 139, ethyl 2-(2-(4-cyanophenyl)-5-(furan-2-carbonyl)thiophen-3-yl)acetate], in the test with INS-1 cells, the activity at 10 µM amounted to 183% and the activity at 50 µM is 247%.

Regarding `N#Cc1ccc(-c2sc(C(=O)c3ccco3)cc2CC(=O)O)cc1` [compound 140, 2-(2-(4-cyanophenyl)-5-(furan-2-carbonyl)thiophen-3-yl)acetic acid], in the test on INS-1 cells, the activity at 10 µM came to 123% and the activity at 50 µM was found to be 188%.

Consider `CN(C)CCNC(=O)Cc1cc(C(=O)c2ccco2)sc1-c1cccc(C#N)c1` [compound 142, 2-(2-(3-cyanophenyl)-5-(furan-2-carbonyl)thiophen-3-yl)-N-(2-(dimethylamino)ethyl)acetamide], for which, in the test on INS-1 cells, the activity at 10 µM was 117% and the activity at 50 µM worked out at 175%.

Regarding `N#CCc1cc(C(=O)c2ccco2)sc1-c1ccc(F)cc1` [compound 145, 2-(2-(4-fluorophenyl)-5-(furan-2-carbonyl)thiophen-3-yl)acetonitrile], in the test on INS-1 cells, the activity at 10 µM was 125% and the activity at 50 µM was found to be 145%.

With `C=C(C(=O)OCC)c1cc(C(=O)c2ccc(OC)cc2)sc1-c1ccc(Cl)cc1` [compound 187, ethyl 2-(2-(4-chlorophenyl)-5-(4-methoxybenzoyl)thiophen-3-yl)acrylate], in the test on INS-1 cells, the activity at 10 µM turned out to be 152% and the activity at 50 µM turned out to be 120%.
